Values quoted from earlier work, collected in patent US7737327B2, “Methods for screening for genes and small molecules that activate mammalian receptor proteins” (The University of Kentucky Research Foundation, priority 2004, dated 2010).

Key:
[1] = system: mouse mammary tumor virus promoter; conditions: only when low level of inducer (200 nm dexamethasone) present simultaneously
[2] = mice on a high-cholesterol diet

## (−)-epigallocatechin-3-O-gallate
[1]
  effect on activity of mouse mammary tumor virus promoter: enhance the activity

## C/C=C1\C(=O)C[C@H]2[C@@H]3CCC4=CC(=O)CC[C@]4(C)[C@H]3CC[C@]12C [guggelsterone]
[2]
  effect on hepatic cholesterol: decrease hepatic cholesterol
